Values after ≈ are worked out from the molar mass of the structure shown.
How the values were obtained:
[1] = Solubility of compound; assay type: physicochemical
[2] = Cmax in rat in presence of Ritonavir; assay type: ADME; settings: in vivo
[3] = AUC in rat in presence of Ritonavir; assay type: ADME; parameters: concentration or dose not given beside the values; settings: in vivo
[4] = Water solubility of compound; assay type: physicochemical
[5] = Stability of compound in PBS buffer at pH 7.3 assessed as half life; assay type: physicochemical
[6] = Stability of compound in PBS at pH 4.9 assessed as half life; assay type: physicochemical
[7] = Stability of compound in PBS at pH 5.5 assessed as half life; assay type: physicochemical
[8] = Stability of compound in PBS at pH 7.4 assessed as half life; assay type: physicochemical
[9] = Metabolic stability in rat liver microsome assessed as half life […]; assay type: ADME; settings: liver microsomes

Structure (SMILES): Cc1cccc(C)c1OCC(=O)N[C@@H](Cc1ccccc1)[C@H](OC(=O)CCC(=O)NCc1ccncc1)C(=O)N1CSC(C)(C)[C@H]1C(=O)NC(C)(C)C
- solubility [1]: 91.5 mg/mL (≈ 123 mM)

Structure (SMILES): Cc1nc(COc2ccc(C[C@H](NC(=O)O[C@H]3CO[C@H]4OCC[C@H]43)[C@@H](CN(CC(C)C)S(=O)(=O)c3ccc4c(c3)OCO4)OC(=O)COC(=O)[C@@H](N)CCCCN)cc2)cs1
- Cmax ([2]; read-out: Cmax): 517 ng/mL
- AUC ([3]; read-out: AUC): 4220 ng·h/mL

Structure (SMILES): CC(C)(C)NC(=O)[C@@H]1CSCN1C(=O)[C@@H](O)[C@H](Cc1ccccc1)NC(=O)COc1ccccc1
- solubility [4]: 0.123 mg/mL (≈ 0.246 mM)

Structure (SMILES): CNCC(=O)OCC(=O)O[C@H](CN(CC(C)C)S(=O)(=O)c1ccc2c(c1)OCO2)[C@H](Cc1ccc(OCc2csc(C)n2)cc1)NC(=O)O[C@H]1CO[C@H]2OCC[C@H]21
- Cmax ([2]; read-out: Cmax): 356 ng/mL
- AUC ([3]; read-out: AUC): 5600 ng·h/mL

Structure (SMILES): Cc1cccc(C)c1OCC(=O)N[C@@H](Cc1ccccc1)[C@H](OC(=O)CCC(=O)NCCN1CCCCC1)C(=O)N1CSC(C)(C)[C@H]1C(=O)NC(C)(C)C
- solubility [1]: 47.8 mg/mL (≈ 62.4 mM)

Structure (SMILES): Cc1cccc(C)c1OCC(=O)N[C@@H](Cc1ccccc1)[C@H](O)C(=O)N1CSC[C@H]1C(=O)NC(C)(C)C
- solubility [4]: 0.023 mg/mL (≈ 0.0436 mM)

Structure (SMILES): Cc1nc(COc2ccc(C[C@H](NC(=O)O[C@H]3CO[C@H]4OCC[C@H]43)[C@@H](CN(CC(C)C)S(=O)(=O)c3ccc4c(c3)OCO4)OC(=O)COCCn3ccnc3)cc2)cs1
- Cmax ([2]; read-out: Cmax): 322 ng/mL
- AUC ([3]; read-out: AUC): > 5000 ng·h/mL

Structure (SMILES): Cc1cccc(CN(C)CCOCC(=O)O[C@H](CN(CC(C)C)S(=O)(=O)c2ccc3c(c2)OCO3)[C@H](Cc2ccc(OCc3csc(C)n3)cc2)NC(=O)O[C@H]2CO[C@H]3OCC[C@H]32)n1
- Cmax ([2]; read-out: Cmax): 401 ng/mL
- AUC ([3]; read-out: AUC): 4020 ng·h/mL

Structure (SMILES): Cc1nc(COc2ccc(C[C@H](NC(=O)O[C@H]3CO[C@H]4OCC[C@H]43)[C@@H](CN(CC(C)C)S(=O)(=O)c3ccc4c(c3)OCO4)OC(=O)COCCOCC(=O)N(C)CCc3ccccn3)cc2)cs1
- Cmax ([2]; read-out: Cmax): 513 ng/mL
- AUC ([3]; read-out: AUC): 4220 ng·h/mL

Structure (SMILES): Cc1cccc(C)c1OCC(=O)N[C@@H](Cc1ccccc1)[C@H](OC(=O)CCC(=O)NCc1cccnc1)C(=O)N1CSC(C)(C)[C@H]1C(=O)NC(C)(C)C
- solubility [1]: 30.3 mg/mL (≈ 40.6 mM)

Structure (SMILES): Cc1c(OC(=O)CCCCO[C@H]2O[C@H](CO)[C@@H](O)[C@H](O)[C@@H]2O)cccc1C(=O)N[C@@H](CSc1ccccc1)[C@H](O)CN1C[C@H]2CCCC[C@H]2C[C@H]1C(=O)NC(C)(C)C
- half-life [5]: 50 h

Structure (SMILES): Cc1c(OC(=O)CCCCO[C@H]2O[C@H](CO)[C@@H](O)[C@H](O)[C@@H]2O)cccc1C(=O)N[C@@H](CSc1ccccc1)[C@@H](CN1C[C@H]2CCCC[C@H]2C[C@H]1C(=O)NC(C)(C)C)OC(=O)CCCCO[C@H]1O[C@H](CO)[C@@H](O)[C@H](O)[C@@H]1O
- half-life [5]: 50 h

Structure (SMILES): COCCN(CCOC)CC(=O)OCC(=O)O[C@H](CN(CC(C)C)S(=O)(=O)c1ccc2c(c1)OCO2)[C@H](Cc1ccc(OCc2csc(C)n2)cc1)NC(=O)O[C@H]1CO[C@H]2OCC[C@H]21
- Cmax ([2]; read-out: Cmax): 1280 ng/mL
- AUC ([3]; read-out: AUC): > 4000 ng·h/mL

Structure (SMILES): CC(C)(C)NC(=O)[C@H]1C[C@@H]2CCCC[C@@H]2CN1C[C@@H](OC(=O)CCCCO[C@H]1O[C@H](CO)[C@@H](O)[C@H](O)[C@@H]1O)[C@H](Cc1ccccc1)NC(=O)[C@H](CC(N)=O)NC(=O)c1ccc2ccccc2n1
- half-life [5]: 50 h

Structure (SMILES): CCN(CC)CC(=O)OCC(=O)O[C@H](CN(CC(C)C)S(=O)(=O)c1ccc2c(c1)OCO2)[C@H](Cc1ccc(OCc2csc(C)n2)cc1)NC(=O)O[C@H]1CO[C@H]2OCC[C@H]21
- Cmax ([2]; read-out: Cmax): 318 ng/mL
- AUC ([3]; read-out: AUC): 3690 ng·h/mL

Structure (SMILES): Cc1ccccc1OCC(=O)O[C@H](C(=O)N1CSC(C)(C)[C@H]1C(=O)NC(C)(C)C)[C@@H](N)Cc1ccccc1.Cl
- half-life [6]: 20.8 min
- half-life [7]: 2.6 min
- half-life [8]: < 1 min
- solubility [4]: 14 mg/mL

Structure (SMILES): CC(C)[C@@H](N)C(=O)N[C@@H](C(=O)O[C@H](CN1C[C@H]2CCCC[C@H]2C[C@H]1C(=O)NC(C)(C)C)[C@H](Cc1ccccc1)NC(=O)[C@H](CC(N)=O)NC(=O)c1ccc2ccccc2n1)C(C)C
- half-life [9]: 296 min

Structure (SMILES): Cc1nc(COc2ccc(C[C@H](NC(=O)O[C@H]3CO[C@H]4OCC[C@H]43)[C@@H](CN(CC(C)C)S(=O)(=O)c3ccc4c(c3)OCO4)OC(=O)CONC(=N)N)cc2)cs1
- Cmax ([2]; read-out: Cmax): 460 ng/mL
- AUC ([3]; read-out: AUC): > 5000 ng·h/mL

Structure (SMILES): Cc1cccc(C)c1OCC(=O)N[C@@H](Cc1ccccc1)[C@H](OC(=O)CCCC(=O)NCCN1CCOCC1)C(=O)N1CSC(C)(C)[C@H]1C(=O)NC(C)(C)C
- solubility [1]: 57.1 mg/mL (≈ 73 mM)

Structure (SMILES): Cc1nc(COc2ccc(C[C@H](NC(=O)O[C@H]3CO[C@H]4OCC[C@H]43)[C@@H](CN(CC(C)C)S(=O)(=O)c3ccc4c(c3)OCO4)OC(=O)COC(=O)[C@@H](N)CC(C)C)cc2)cs1
- Cmax ([2]; read-out: Cmax): 776 ng/mL
- AUC ([3]; read-out: AUC): 3960 ng·h/mL

Structure (SMILES): Cc1nc(COc2ccc(C[C@H](NC(=O)O[C@H]3CO[C@H]4OCC[C@H]43)[C@@H](CN(CC(C)C)S(=O)(=O)c3ccc4c(c3)OCO4)OC(=O)COC(=O)CN3CCOCC3)cc2)cs1
- Cmax ([2]; read-out: Cmax): 1280 ng/mL
- AUC ([3]; read-out: AUC): > 4000 ng·h/mL

Structure (SMILES): COCCN(C)CC(=O)OCC(=O)O[C@H](CN(CC(C)C)S(=O)(=O)c1ccc2c(c1)OCO2)[C@H](Cc1ccc(OCc2csc(C)n2)cc1)NC(=O)O[C@H]1CO[C@H]2OCC[C@H]21
- Cmax ([2]; read-out: Cmax): 407 ng/mL
- AUC ([3]; read-out: AUC): 4710 ng·h/mL

Structure (SMILES): CC(C)(C)NC(=O)[C@H]1N(C(=O)[C@@H](O)[C@H](Cc2ccccc2)NC(=O)COc2ccccc2)CSC1(C)C
- solubility [4]: 0.047 mg/mL (≈ 0.0891 mM)

Structure (SMILES): Cc1ccccc1OCC(=O)N[C@@H](Cc1ccccc1)[C@H](O)C(=O)N1CSC(C)(C)[C@H]1C(=O)NC(C)(C)C
- solubility [4]: 0.018 mg/mL (≈ 0.0332 mM)

Structure (SMILES): CC(C)(C)NC(=O)[C@H]1N(C(=O)[C@@H](OC(=O)COc2ccccc2)[C@@H](N)Cc2ccccc2)CSC1(C)C.Cl
- half-life [6]: 24 min
- half-life [7]: 3.2 min
- half-life [8]: < 1 min
- solubility [4]: 21 mg/mL

Structure (SMILES): Cc1nc(COc2ccc(C[C@H](NC(=O)O[C@H]3CO[C@H]4OCC[C@H]43)[C@@H](CN(CC(C)C)S(=O)(=O)c3ccc4c(c3)OCO4)OC(=O)COC(=O)CN(C)CCc3ccccn3)cc2)cs1
- Cmax ([2]; read-out: Cmax): 791 ng/mL
- AUC ([3]; read-out: AUC): 5350 ng·h/mL

Structure (SMILES): CC(C)(C)NC(=O)[C@@H]1CSCN1C(=O)[C@@H](OC(=O)COc1ccccc1)[C@@H](N)Cc1ccccc1.Cl
- half-life [6]: 21.2 min
- half-life [7]: 2.9 min
- half-life [8]: < 1 min
- solubility [4]: 32 mg/mL

Structure (SMILES): Cc1nc(COc2ccc(C[C@H](NC(=O)O[C@H]3CO[C@H]4OCC[C@H]43)[C@@H](CN(CC(C)C)S(=O)(=O)c3ccc4c(c3)OCO4)OC(=O)COCC(=O)Nc3ccn[nH]3)cc2)cs1
- Cmax ([2]; read-out: Cmax): 603 ng/mL
- AUC ([3]; read-out: AUC): 7040 ng·h/mL

Structure (SMILES): Cc1nc(COc2ccc(C[C@H](NC(=O)O[C@H]3CO[C@H]4OCC[C@H]43)[C@@H](CN(CC(C)C)S(=O)(=O)c3ccc4c(c3)OCO4)OC(=O)CO[n+]3ccccc3)cc2)cs1
- Cmax ([2]; read-out: Cmax): 272 ng/mL
- AUC ([3]; read-out: AUC): > 7700 ng·h/mL

Structure (SMILES): Cc1cccc(C)c1OCC(=O)N[C@@H](Cc1ccccc1)[C@H](OC(=O)CCCC(=O)NCCN)C(=O)N1CSC(C)(C)[C@H]1C(=O)NC(C)(C)C
- solubility [1]: 50.3 mg/mL (≈ 70.7 mM)

Structure (SMILES): Cc1nc(COc2ccc(C[C@H](NC(=O)O[C@H]3CO[C@H]4OCC[C@H]43)[C@@H](CN(CC(C)C)S(=O)(=O)c3ccc4c(c3)OCO4)OC(=O)COCC(=O)NCc3ccccn3)cc2)cs1
- Cmax ([2]; read-out: Cmax): 640 ng/mL
- AUC ([3]; read-out: AUC): 6810 ng·h/mL

Structure (SMILES): Cc1cccc(C)c1OCC(=O)N[C@@H](Cc1ccccc1)[C@H](OC(=O)CCC(=O)NCCCN1CCOCC1)C(=O)N1CSC(C)(C)[C@H]1C(=O)NC(C)(C)C
- solubility [1]: 73.6 mg/mL (≈ 94.1 mM)

Structure (SMILES): Cc1cccc(C)c1OCC(=O)N[C@@H](Cc1ccccc1)[C@H](OC(=O)CCC(=O)NCCN)C(=O)N1CSC(C)(C)[C@H]1C(=O)NC(C)(C)C
- solubility [1]: 77.1 mg/mL (≈ 110 mM)

Structure (SMILES): Cc1cccc(C)c1OCC(=O)N[C@@H](Cc1ccccc1)[C@H](OC(=O)CCC(=O)NCCN1CCCC1)C(=O)N1CSC(C)(C)[C@H]1C(=O)NC(C)(C)C
- solubility [1]: 93.8 mg/mL (≈ 125 mM)

Structure (SMILES): Cc1cccc(C)c1OCC(=O)O[C@H](C(=O)N1CSC(C)(C)[C@H]1C(=O)NC(C)(C)C)[C@@H](N)Cc1ccccc1.Cl
- half-life [6]: 24.8 min
- half-life [7]: 4.5 min
- half-life [8]: < 1 min

Structure (SMILES): Cc1ccccc1OCC(=O)N[C@@H](Cc1ccccc1)[C@H](O)C(=O)N1CSC[C@H]1C(=O)NC(C)(C)C
- solubility [4]: 0.042 mg/mL (≈ 0.0818 mM)

Structure (SMILES): Cc1cccc(C)c1OCC(=O)N[C@@H](Cc1ccccc1)[C@H](OC(=O)CCC(=O)NCc1ccccn1)C(=O)N1CSC(C)(C)[C@H]1C(=O)NC(C)(C)C
- solubility [1]: 31.9 mg/mL (≈ 42.8 mM)

Structure (SMILES): Cc1ccccc1OCC(=O)O[C@H](C(=O)N1CSC[C@H]1C(=O)NC(C)(C)C)[C@@H](N)Cc1ccccc1.Cl
- half-life [6]: 19.6 min
- half-life [7]: 2.4 min
- half-life [8]: < 1 min
- solubility [4]: 15 mg/mL

Structure (SMILES): Cc1nc(COc2ccc(C[C@H](NC(=O)O[C@H]3CO[C@H]4OCC[C@H]43)[C@H](O)CN(CC(C)C)S(=O)(=O)c3ccc4c(c3)OCO4)cc2)cs1 [BRECANAVIR]
- Cmax [2]: 696 ng/mL
- AUC [3]: 1960 ng·h/mL

Structure (SMILES): Cc1cccc(C)c1OCC(=O)N[C@@H](Cc1ccccc1)[C@H](OC(=O)CCC(=O)NCCN1CCOCC1)C(=O)N1CSC(C)(C)[C@H]1C(=O)NC(C)(C)C
- solubility [1]: 53.2 mg/mL (≈ 69.3 mM)

Structure (SMILES): Cc1cccc(C)c1OCC(=O)O[C@H](C(=O)N1CSC[C@H]1C(=O)NC(C)(C)C)[C@@H](N)Cc1ccccc1.Cl
- half-life [6]: 23.8 min
- half-life [7]: 4.2 min
- half-life [8]: < 1 min
- solubility [4]: 15 mg/mL
